In general, IC50 refers to the concentration at which inhibition is half-maximal. In general, Ki refers to a measure of affinity in units of concentration, obtained from inhibition or displacement.

For data set [1], the target named is T1, human NK-3 receptor (Homo sapiens (Human), UniProt P29371). Kind of data set: Aequorin functional assay with human NK-3 receptor (antagonist testing). The class given is cell-based. The note with it: CHO cells expressing human NK-3 receptor and apoaequorin; agonist NKA at EC80 (3 nM); read-out: hNK-3 - AEQ (antagonist IC50). On the procedure:
Aequorin Assay with Human NK-3 Receptor
Changes in intracellular calcium levels are a recognized indicator of G protein-coupled receptor activity. The efficacy of compounds of the invention to inhibit NKA-mediated NK-3 receptor activation was assessed by an in vitro Aequorin functional assay. Chinese Hamster Ovary recombinant cells expressing the human NK-3 receptor and a construct that encodes the photoproteinapoaequorin were used for this assay. In the presence of the cofactor coelenterazine, apoaequorin emits a measurable luminescence that is proportional to the amount of intracellular (cytoplasmic) free calcium.
The antagonist activity of compounds of the invention is measured following pre-incubation (3 minutes) of the compound (at various concentrations) with the cells, followed by addition of the reference agonist (NKA) at a final concentration equivalent to the EC80 (3 nM) and recording of emitted light (FDSS 6000 Hamamatsu) over the subsequent 90-second period. The intensity of the emitted light is integrated using the reader software. Compound antagonist activity is measured based on the concentration-dependent inhibition of the luminescence response to the addition of Neurokinin A.
The IC50 values shown in table 2 indicate that compounds of the invention are potent NK-3 antagonist compounds.

In data set [2] the target is T1, human NK-3 receptor. Kind of data set: 3H-SB222200 binding competition assay with human NK-3 receptor. The note with it: CHO cell membranes, 5 nM 3H-SB222200; Ki by Cheng-Prusoff; read-out: hNK-3 (Ki). The protocol: The affinity of compounds of the invention for the human NK-3 receptor was determined by measuring the ability of compounds of the invention to competitively and reversibly displace a well-characterized NK-3 radioligand in a concentration-dependent manner.
^3H-SB222200 Binding Competition Assay with Human NK-3 Receptor
The ability of compounds of the invention to inhibit the binding of the NK-3 receptor selective antagonist ^3H-SB222200 was assessed by an in vitro radioligand binding assay. Membranes were prepared from Chinese hamster ovary recombinant cells stably expressing the human NK-3 receptor. The membranes were incubated with 5 nM ^3H-SB222200 (ARC) in a HEPES 25 mM/NaCl 0.1M/CaCl2 1 mM/MgCl2 5 mM/BSA 0.5%/Saponin 10 μg/ml buffer at pH 7.4 and various concentrations of compounds of the invention. The amount of ^3H-SB222200 bound to the receptor was determined after filtration by the quantification of membrane associated radioactivity using the TopCount-NXT reader (Packard).

Another data set has as its target human NK-1 receptor (Homo sapiens (Human), UniProt P25103). Briefly: Selectivity assay: [3H] substance P binding to human NK-1 receptor. Particulars: CHO cell membranes, 2 nM [3H] substance P; read-out: hNK-1 (Ki). The protocol:
(§1) Selectivity of the compounds of the invention was determined over the other human NK receptors, namely NK-1 and NK-2 receptors.
The affinity of compounds of the invention for the NK-1 receptor was evaluated in CHO recombinant cells which express the human NK-1 receptor. Membrane suspensions were prepared from these cells. The following radioligand: [^3H] substance P (PerkinElmer Cat#NET111520) was used in this assay. Binding assays were performed in a 50 mM Tris/5 mM MnCl2/150 mM NaCl/0.1% BSA at pH 7.4. Binding assays consisted of 25 μl of membrane suspension (approximately 5 μg of protein/well in a 96 well plate), 50 μl of compound or reference ligand (Substance P) at increasing concentrations (diluted in assay buffer) and 2 nM [^3H] substance P. The plate was incubated 60 min at 25° C. in a water bath and then filtered over GF/C filters (Perkin Elmer, 6005174, presoaked in 0.5% PEI for 2 h at room temperature) with a Filtration unit (Perkin Elmer). The radioactivity retained on the filters was measured by using the TopCount-NXT reader (Packard).

A further data set addresses human NK-2 receptor (Homo sapiens (Human), UniProt P21452). Kind of data set: Selectivity assay: [125I]-Neurokinin A binding to human NK-2 receptor. The note with it: CHO cell membranes, 0.1 nM [125I]-Neurokinin A; read-out: hNK-2 (Ki). The protocol: as §1
The affinity of compounds of the invention for the NK-2 receptor was evaluated in CHO recombinant cells which express the human NK-2 receptor. Membrane suspensions were prepared from these cells. The following radioligand [^125I]-Neurokinin A (PerkinElmer Cat#NEX252) was used in this assay. Binding assays were performed in a 25 mM HEPES/1 mM CaCl2/5 mM MgCl2/0.5% BSA/10 μg/ml saponin, at pH 7.4. Binding assays consisted of 25 μl of membrane suspension (approximately 3.75 μg of protein/well in a 96 well plate), 50 μl of compound or reference ligand (Neurokinin A) at increasing concentrations (diluted in assay buffer) and 0.1 nM [^125I]-Neurokinin A. The plate was incubated 60 min at 25° C. in a water bath and then filtered over GF/C filters (Perkin Elmer, 6005174, presoaked in assay buffer without saponine for 2 h at room temperature) with a Filtration unit (Perkin Elmer). The radioactivity retained on the filters was measured by using the TopCount-NXT reader (Packard).

A short description of data set [3]: Determination of plasma protein binding (rapid equilibrium dialysis). The class given is in vitro ADME. Particulars: bound drug fraction to plasma protein; equilibrium dialysis 4 hours at 37° C. The source says:
Determination of Plasma Protein Binding
The pharmacokinetic and pharmacodynamic properties of chemicals/drugs are largely a function of the reversible binding of chemicals to plasma or serum proteins. […] Consequently, the extent of the plasma protein binding (PPB) of a compound influences its action as well as its distribution and elimination.
The determination of plasma protein binding (PPB) of a compound is enabled by equilibrium dialysis, an accepted and standard method for reliable estimation of the non-bound drug fraction in plasma. RED (Rapid Equilibrium Dialysis) device insert is made of two side-by-side chambers separated by an O-ring-sealed vertical cylinder of dialysis membrane (MWCO ˜8,000). […] After 4 hours incubation at 37° C. under shaking, an aliquot is removed from each chamber and analyzed by a LC-MS/MS procedure enables the determination of both free and bound drug.
The “free fraction” may be calculated as 100%−% rPPB (i.e. the complementary percentage of that disclosed in Table 4, corresponding to the drug concentration that is unbound and therefore available to engage biological target and elicit pharmacological activity).
Background: Equilibrium dialysis compares concentrations on both sides of a semipermeable membrane.

The next data set has as its target hERG channel (Homo sapiens (Human), UniProt Q12809). Kind of data set: hERG inhibition assay (manual patch-clamp, HEK 293 cells). The class given is cell-based. The note with it: 5 minutes of exposure, read-out: CardioSafety (hERG IC50). On the procedure:
IKr current inhibition accounts for the vast majority of known cases of drug-induced QT-prolongation. […] Whole-cell currents (acquisition by manual patch-clamp) elicited during a voltage pulse were recorded in baseline conditions and following application of tested compounds (5 minutes of exposure). The concentrations of tested compounds (0.3 μM; 3 μM; 10 μM; 30 μM) reflect a range believed to exceed the concentrations at expected efficacy doses in preclinical models. […] The current density recorded were normalized against the baseline conditions and corrected for solvent effect and time-dependent current run-down using experimental design in test compound free conditions.
(In general: hERG is a cardiac potassium channel; its block is linked to QT prolongation.)

The next data set relates to circulating LH levels. Kind of data set: Castrated male rat model, circulating levels of luteinizing hormone (LH), oral dosing. The format is in vivo. The note with it: castrated male SD rats, single oral dose less than or equal to 30 mg/kg, p<0.05. On the procedure: In Vivo Assay to Assess Compound Activity in Rat (Oral Dosing) The effect of compounds of the invention to inhibit luteinizing hormone (LH) secretion is determined by the following biological studies. Castrated Male Rat Model to Assess the Effect of Compound of Invention on Circulating Levels of Luteinizing Hormone (LH) In humans and rodents, castration is well-precedented to permit heightened, persistent GnRH signaling and consequent elevation of circulating LH. Thus, a castrated rat model is used to provide a broad index for measurement of LH inhibition as a marker of test compound inhibition of the GnRH signaling pathway. Castrated adult male Sprague-Dawley (SD) rats (150-175 g,) were purchased from Janvier (St Berthevin, France). All animals were housed 2 per cage in a temperature-controlled room (22±2° C.) and 50±5% relative humidity with a 12 hour/12 hour light/dark cycles (lights off at 6 h00 pm). The animals were allowed 3 weeks of postoperative recovery prior to study. Animals were handled on a daily basis. Standard diet and tap water were provided ad libitum. Animal cage litters were changed once a week. On the study day, animals were acclimated to the procedure room for a period of one hour prior to the initiation of the experiment. […] Serum LH levels were determined using radioimmunoas say kit from RIAZEN—Rat LH, Zentech (Liège, Belgium). […]

T1 sequence (P29371 whole entry): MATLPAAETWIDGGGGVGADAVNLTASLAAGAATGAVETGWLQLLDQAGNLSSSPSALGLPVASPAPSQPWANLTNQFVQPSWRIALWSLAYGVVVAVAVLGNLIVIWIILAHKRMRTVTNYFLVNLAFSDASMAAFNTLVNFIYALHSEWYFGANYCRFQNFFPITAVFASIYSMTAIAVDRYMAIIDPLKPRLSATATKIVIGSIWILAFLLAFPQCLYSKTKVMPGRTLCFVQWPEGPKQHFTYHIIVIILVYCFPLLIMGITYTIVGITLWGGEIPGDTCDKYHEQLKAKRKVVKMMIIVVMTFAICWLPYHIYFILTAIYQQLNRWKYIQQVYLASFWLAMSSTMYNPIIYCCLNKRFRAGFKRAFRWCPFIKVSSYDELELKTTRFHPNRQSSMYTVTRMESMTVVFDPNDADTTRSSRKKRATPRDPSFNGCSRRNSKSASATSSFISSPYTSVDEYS
Sequence of human NK-1 receptor (P25103 whole entry): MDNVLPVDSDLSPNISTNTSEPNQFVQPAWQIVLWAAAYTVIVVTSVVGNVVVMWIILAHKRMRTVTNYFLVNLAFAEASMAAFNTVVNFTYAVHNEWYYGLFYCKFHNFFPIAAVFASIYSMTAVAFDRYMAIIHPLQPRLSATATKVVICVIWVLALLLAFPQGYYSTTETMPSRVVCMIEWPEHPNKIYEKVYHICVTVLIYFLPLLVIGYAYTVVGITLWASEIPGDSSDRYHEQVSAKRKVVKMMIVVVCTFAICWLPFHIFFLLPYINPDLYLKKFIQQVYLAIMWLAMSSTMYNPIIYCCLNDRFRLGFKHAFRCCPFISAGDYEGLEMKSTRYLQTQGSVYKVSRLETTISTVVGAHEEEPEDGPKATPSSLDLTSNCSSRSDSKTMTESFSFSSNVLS
Sequence of human NK-2 receptor (P21452 whole entry): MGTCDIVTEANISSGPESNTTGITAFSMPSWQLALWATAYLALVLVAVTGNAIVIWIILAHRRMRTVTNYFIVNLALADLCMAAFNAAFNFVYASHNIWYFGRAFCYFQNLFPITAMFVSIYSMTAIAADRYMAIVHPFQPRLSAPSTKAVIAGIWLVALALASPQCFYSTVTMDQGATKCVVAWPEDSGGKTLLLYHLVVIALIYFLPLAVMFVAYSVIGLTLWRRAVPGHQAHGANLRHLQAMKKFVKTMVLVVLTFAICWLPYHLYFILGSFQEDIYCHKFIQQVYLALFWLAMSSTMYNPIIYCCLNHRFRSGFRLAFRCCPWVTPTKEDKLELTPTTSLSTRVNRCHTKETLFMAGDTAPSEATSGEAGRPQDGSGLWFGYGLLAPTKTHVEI
Sequence of hERG channel (Q12809 whole entry): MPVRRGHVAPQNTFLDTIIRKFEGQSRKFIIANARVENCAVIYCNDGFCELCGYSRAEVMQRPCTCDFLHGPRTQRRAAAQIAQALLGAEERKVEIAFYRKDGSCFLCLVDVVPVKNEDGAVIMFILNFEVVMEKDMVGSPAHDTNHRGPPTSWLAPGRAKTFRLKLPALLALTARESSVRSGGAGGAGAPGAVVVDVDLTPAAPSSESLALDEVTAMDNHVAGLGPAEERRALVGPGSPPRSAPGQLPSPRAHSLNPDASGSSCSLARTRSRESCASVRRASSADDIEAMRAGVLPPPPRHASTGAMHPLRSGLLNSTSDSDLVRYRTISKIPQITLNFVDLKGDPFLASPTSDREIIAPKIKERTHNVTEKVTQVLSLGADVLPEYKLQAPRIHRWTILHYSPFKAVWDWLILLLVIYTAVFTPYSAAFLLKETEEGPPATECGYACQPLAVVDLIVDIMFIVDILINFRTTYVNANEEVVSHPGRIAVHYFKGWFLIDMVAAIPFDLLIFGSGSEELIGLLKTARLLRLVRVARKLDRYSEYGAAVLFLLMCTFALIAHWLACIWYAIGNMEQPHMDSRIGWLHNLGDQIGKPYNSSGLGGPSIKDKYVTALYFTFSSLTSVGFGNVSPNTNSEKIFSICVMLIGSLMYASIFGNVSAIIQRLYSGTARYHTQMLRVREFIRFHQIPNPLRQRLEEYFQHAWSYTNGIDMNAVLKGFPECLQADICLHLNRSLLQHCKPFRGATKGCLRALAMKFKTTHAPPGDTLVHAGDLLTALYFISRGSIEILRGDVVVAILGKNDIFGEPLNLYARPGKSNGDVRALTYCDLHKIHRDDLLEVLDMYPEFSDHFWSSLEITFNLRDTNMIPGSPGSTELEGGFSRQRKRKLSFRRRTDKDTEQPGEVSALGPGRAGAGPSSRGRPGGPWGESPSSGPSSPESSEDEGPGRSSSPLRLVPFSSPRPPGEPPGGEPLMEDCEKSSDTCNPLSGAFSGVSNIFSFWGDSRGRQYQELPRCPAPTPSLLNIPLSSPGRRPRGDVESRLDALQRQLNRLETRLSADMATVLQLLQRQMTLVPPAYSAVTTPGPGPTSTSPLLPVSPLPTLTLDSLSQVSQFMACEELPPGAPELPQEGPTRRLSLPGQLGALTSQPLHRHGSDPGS

`Cc1nsc(-c2nnc3n2CCN(C(=O)c2ccc(Cl)c(F)c2)C3)n1` [Compound 3, (4-chloro-3-fluorophenyl)(3-(3-methyl-1,2,4-thiadiazol-5-yl)-5,6-dihydro-[1,2,4]triazol[4,3-a]pyrazin-7(8H)-yl)methanone]: the concentration for half-maximal inhibition (IC50) at human NK-3 receptor [1] is 140 nM. The Ki was 93 nM on human NK-3 receptor [2], greater than 30000 nM at human NK-1 receptor and greater than 30000 nM on human NK-2 receptor. The “Exposure (% rPPB)” value in data set [3] turned out to be 54%.
Take `Cc1nsc(-c2nnc3n2CCN(C(=O)c2ccc(Cl)cc2)C3)n1` [Compound 2, (4-chlorophenyl)(3-(3-methyl-1,2,4-thiadiazol-5-yl)-5,6-dihydro-[1,2,4]triazol[4,3-a]pyrazin-7(8H)-yl)methanone]: the IC50 on human NK-3 receptor [1] was determined as 140 nM; on hERG channel, 35000 nM. In addition, the results for the Ki on human NK-3 receptor [2], at human NK-1 receptor and at human NK-2 receptor were 99 nM, greater than 30000 nM and greater than 30000 nM, respectively. Moreover, in data set [3], the “Exposure (% rPPB)” value is 49%.
For `Cc1nsc(-c2nnc3n2CCN(C(=O)c2ccc(F)cc2)C3)n1` [Compound 1, (4-fluorophenyl)(3-(3-methyl-1,2,4-thiadiazol-5-yl)-5,6-dihydro-[1,2,4]triazolo[4,3-a]pyrazin-7(8H)-yl)methanone], the IC50 at human NK-3 receptor [1] came out at 180 nM. For the same molecule, the values for the Ki at human NK-3 receptor [2], at human NK-1 receptor and at human NK-2 receptor were 140 nM, greater than 30000 nM and greater than 30000 nM, respectively. Moreover, the “suppression of circulating LH levels” value in the data set on circulating LH levels is “significantly suppressed circulating LH levels”.
Consider `Cc1nsc(-c2nnc3n2CCN(C(=O)c2ccc(F)c(F)c2)C3)n1` [Compound 5, (3,4-difluorophenyl)(3-(3-methyl-1,2,4-thiadiazol-5-yl)-5,6-dihydro-[1,2,4]triazol[4,3-a]pyrazin-7(8H)-yl)methanone], for which the IC50 on human NK-3 receptor [1] was determined as 250 nM. The values for the inhibitory constant (Ki) on human NK-3 receptor [2], at human NK-1 receptor and at human NK-2 receptor were 170 nM, greater than 30000 nM and greater than 30000 nM, respectively. Moreover, the “Exposure (% rPPB)” value in data set [3] was found to be 28%.
For the molecule `Cc1nsc(-c2nnc3n2CCN(C(=O)c2ccc(F)c(Cl)c2)C3)n1` [Compound 4, (3-chloro-4-fluorophenyl)(3-(3-methyl-1,2,4-thiadiazol-5-yl)-5,6-dihydro-[1,2,4]triazol[4,3-a]pyrazin-7(8H)-yl)methanone], at human NK-3 receptor [1], the IC50 was determined as 200 nM. For the same molecule, the Ki on human NK-3 receptor [2] was 130 nM; on human NK-1 receptor, greater than 30000 nM; on human NK-2 receptor it was greater than 30000 nM. In addition, in data set [3], the “Exposure (% rPPB)” value came to 52%.
On to `Cc1nsc(-c2nnc3n2CCN(C(=O)c2cc(F)c(F)c(F)c2)C3)n1` [Compound 6, (3-(3-methyl-1,2,4-thiadiazol-5-yl)-5,6-dihydro-[1,2,4]triazolo[4,3-a]pyrazin-7(8H)-yl)(3,4,5-trifluorophenyl)methanone], for which the IC50 on human NK-3 receptor [1] was 330 nM. Moreover, the Ki at human NK-3 receptor [2] is 170 nM; at human NK-1 receptor, greater than 30000 nM; on human NK-2 receptor, greater than 30000 nM. In addition, in data set [3], the “Exposure (% rPPB)” value worked out at 27%.
Take `Cc1nsc(-c2nnc3n2CCN(C(=O)c2ccc(F)c(F)c2F)C3)n1` [Compound 7, (3-(3-methyl-1,2,4-thiadiazol-5-yl)-5,6-dihydro-[1,2,4]triazolo[4,3-a]pyrazin-7(8H)-yl)(2,3,4-trifluorophenyl)methanone]: on human NK-3 receptor [1], the IC50 came out at 470 nM. In addition, the Ki was 240 nM at human NK-3 receptor [2], greater than 30000 nM on human NK-1 receptor and greater than 30000 nM on human NK-2 receptor. The “Exposure (% rPPB)” value in data set [3] came to 25%.
